Data from patent US5204352A, “Compounds exhibiting anti-parasitic activity and a method for their use” (The United States of America as represented by the …, priority 1987, dated 1993).

System: Trypanosoma rhodesiense
Test: In vivo trypanocidal activity in infected mice (protocol based on Rane et al.)
Parameters: Activity at dosage, value in parentheses (increase in survival): unit not given here
Conditions: for Activity at dosage (C = Cures) / Activity at dosage, value in parentheses (increase in survival): peritoneal (Table 2)
Protocol: The compounds of the present invention were evaluated biologically in vivo with groups of 5 mice at various dose levels. Unless otherwise indicated, the data are for subcutaneous administration. Dose levels marked with an asterisk are for peritoneal administration in a HEC+T medium. In addition, Table 2 present results of peritoneal administration with substituted quanylhydrazones. The biological evaluation was done according to a standard protocol based on the method described by Rane et al., Amer. J. Trop. Med Hyg. 25:395 (1976). […]

[1] = 424* mg/kg, peritoneal in HEC+T medium (Table I)

CC(=O)Nc1ccc(-c2cn3c(C)cc(C)cc3[n+]2C)cc1 [BJ90703]
Increase in survival (26 mg/kg, subcutaneous): 8.9 days
Trypanocidal activity, cures (26 mg/kg, subcutaneous): 1/5
Increase in survival (106 mg/kg, subcutaneous): 2.9 days
Trypanocidal activity, cures (106 mg/kg, subcutaneous): 4/5
Increase in survival (424 mg/kg, subcutaneous): 9.4 days
Trypanocidal activity, cures (424 mg/kg, subcutaneous): 3/5
Increase in survival [1]: 3.4 days
Trypanocidal activity, cures [1]: 1/5

C[n+]1c(-c2ccc(C=NNc3ncn[nH]3)cc2)cn2ccsc21 [BK2403S]
Increase in survival (6.65 mg/kg, subcutaneous): 5.0 days
Trypanocidal activity, cures (6.65 mg/kg, subcutaneous): 4/5
Increase in survival (13.3 mg/kg, subcutaneous): 5.0 days
Trypanocidal activity, cures (13.3 mg/kg, subcutaneous): 6/10
Increase in survival (26.5 mg/kg, subcutaneous): 7.3 days
Trypanocidal activity, cures (26.5 mg/kg, subcutaneous): 12/15
Increase in survival (53 mg/kg, subcutaneous): 12.5 days
Trypanocidal activity, cures (53 mg/kg, subcutaneous): 3/5
Increase in survival (106 mg/kg, subcutaneous): 7.7 days
Trypanocidal activity, cures (106 mg/kg, subcutaneous): 7/10
Increase in survival (212 mg/kg, subcutaneous): 5.0 days
Trypanocidal activity, cures (212 mg/kg, subcutaneous): 3/5

C[n+]1c(-c2ccc(C=NNc3nccs3)cc2)cn2ccccc21 [BK50302]
Increase in survival (0.2 mg/kg, subcutaneous): 2.0 days
Trypanocidal activity, cures (0.2 mg/kg, subcutaneous): 3/5
Trypanocidal activity, cures (0.4 mg/kg, subcutaneous): 5/5
Increase in survival (0.8 mg/kg, subcutaneous): 15.0 days
Trypanocidal activity, cures (0.8 mg/kg, subcutaneous): 4/5
Activity at dosage (C = Cures) (106 mg/kg): INAC
Activity at dosage (C = Cures) (212 mg/kg): INAC
Activity at dosage (C = Cures) (424 mg/kg): INAC

C[n+]1c(-c2ccc(C=NNC(=N)N3CCCC3)cc2)cn2ccccc21 [BK50277]
Trypanocidal activity, cures (0.1 mg/kg, subcutaneous): 5/5
Trypanocidal activity, cures (0.2 mg/kg, subcutaneous): 4/5
Trypanocidal activity, cures (0.4 mg/kg, subcutaneous): 5/5
Trypanocidal activity, cures (0.8 mg/kg, subcutaneous): 9/10
Trypanocidal activity, cures (1.7 mg/kg, subcutaneous): 10/10
Trypanocidal activity, cures (3.3 mg/kg, subcutaneous): 5/5

CC(=O)Nc1ccc(-c2cn3ccc4ccccc4c3[n+]2C)cc1 [BJ83235]
Increase in survival (53 mg/kg, subcutaneous): 1.7 days
Trypanocidal activity, cures (53 mg/kg, subcutaneous): 1/5
Increase in survival (212 mg/kg, subcutaneous): 2.9 days
Trypanocidal activity, cures (212 mg/kg, subcutaneous): 4/5

C[n+]1c(-c2ccc(C(N)=NO)cc2)cn2ccccc21 [BJ84974]
Increase in survival (13.3 mg/kg, subcutaneous): 3.1 days
Increase in survival (26.5 mg/kg, subcutaneous): 1.6 days
Trypanocidal activity, cures (26.5 mg/kg, subcutaneous): 2/10
Trypanocidal activity, cures (53 mg/kg, subcutaneous): 5/5
Increase in survival (106 mg/kg, subcutaneous): 9.9 days
Trypanocidal activity, cures (106 mg/kg, subcutaneous): 9/10
Trypanocidal activity, cures (212 mg/kg, subcutaneous): 5/5

CN(C)C(=N)NN=Cc1ccc(-c2cn3ccccc3[n+]2C)cc1 [BK47976]
Trypanocidal activity, cures (6.66 mg/kg, subcutaneous): 5/5

CC(=O)Nc1ccc(-c2cn3c4ccccc4ccc3[n+]2C)cc1 [BJ83244]
Increase in survival (212 mg/kg, subcutaneous): 8.4 days
Trypanocidal activity, cures (212 mg/kg, subcutaneous): 3/5

C[n+]1c(-c2ccc(C=NNC(=N)N)cc2)cn2ccsc21 [BK21909]
Trypanocidal activity, cures (13.3 mg/kg, subcutaneous): 5/5

CCN=C(NCC)NN=Cc1ccc(OCc2cn3ccccc3[n+]2C)cc1 [BL03933]
Increase in survival (1.6 mg/kg, subcutaneous): 6.3 days
Trypanocidal activity, cures (1.6 mg/kg, subcutaneous): 7/10
Trypanocidal activity, cures (3.3 mg/kg, subcutaneous): 5/5
Trypanocidal activity, cures (6.6 mg/kg, subcutaneous): 5/5

C[n+]1c(-c2ccc(C=NNC(N)=O)cc2)cn2ccsc21 [BK21918]
Increase in survival (26.5 mg/kg, subcutaneous): 4.8 days
Increase in survival (53 mg/kg, subcutaneous): 4.5 days

Cn1cc(-c2ccc(C=NNC(N)=O)cc2)[n+](C)c1 [BK23994]
Increase in survival (424 mg/kg, subcutaneous): 5.8 days

C=CC[n+]1c(-c2ccc(NC(C)=O)cc2)cn2cc(C)ccc21 [BK02557]
Increase in survival [1]: 3.8 days
Trypanocidal activity, cures [1]: 2/10

C=CC[n+]1c(-c2ccc(C=NNc3ncn[nH]3)cc2)cn2ccccc21 [BK24017]
Increase in survival (26 mg/kg, subcutaneous): 2.3 days
Trypanocidal activity, cures (26 mg/kg, subcutaneous): 4/10
Increase in survival (53 mg/kg, subcutaneous): 4.6 days

C=CC[n+]1c(-c2ccc(NC(C)=O)cc2)cn2ccccc21 [BJ58296]
Increase in survival (26.5 mg/kg, subcutaneous): 5.0 days
Trypanocidal activity, cures (26.5 mg/kg, subcutaneous): 7/10

Cc1ccc2n(c1)cc(-c1ccc(C(N)=NO)cc1)[n+]2C [BK13087]
Increase in survival (53 mg/kg, subcutaneous): 2.3 days
Trypanocidal activity, cures (53 mg/kg, subcutaneous): 2/5

CCN(CC)CCN=C(N)NN=Cc1ccc(-c2cn3ccccc3[n+]2C)cc1 [BK46175]
Increase in survival (0.83 mg/kg, (F), subcutaneous): 3.3 days
Trypanocidal activity, cures (0.83 mg/kg, (F), subcutaneous): 2/5
Increase in survival (0.83 mg/kg, M, subcutaneous): 6.3 days

CN(C)C(=N)NN=Cc1ccc(-c2c([N+](=O)[O-])n3ccccc3[n+]2C)cc1 [BK50268]
Activity at dosage (C = Cures) (3.3 mg/kg): INAC
Activity at dosage (C = Cures) (6.7 mg/kg): INAC
Activity at dosage, value in parentheses (increase in survival) (13 mg/kg): 4.5
Activity at dosage, value in parentheses (increase in survival) (26 mg/kg): 5.0
Activity at dosage, value in parentheses (increase in survival) (53 mg/kg): 9.9
Activity at dosage, value in parentheses (increase in survival) (106 mg/kg): 12.5

C[n+]1c(-c2ccc(C=NNC(=N)N)cc2)c(Br)n2ccccc21 [BK51907]
Activity at dosage (C = Cures) (0.8 mg/kg): INAC
Activity at dosage (C = Cures) (1.7 mg/kg): INAC
Activity at dosage, value in parentheses (increase in survival) (3.3 mg/kg): 1.2
Activity at dosage, value in parentheses (increase in survival) (6.7 mg/kg): 3.8
Activity at dosage, value in parentheses (increase in survival) (13 mg/kg): 7.0
Activity at dosage, value in parentheses (increase in survival) (26 mg/kg): 10.0
Activity at dosage, value in parentheses (increase in survival) (424 mg/kg): 2.0

CCN=C(NCC)NN=Cc1ccc(OCc2n(C)cc[n+]2C)cc1 [BL28038]
Trypanocidal activity, cures (13 mg/kg, subcutaneous): 3/5

C[n+]1cccc(COc2ccc(C=NNC(=N)N3CCCC3)cc2)c1 [BL10027]
Increase in survival (0.8 mg/kg, subcutaneous): 5.2 days
Trypanocidal activity, cures (0.8 mg/kg, subcutaneous): 7/10
Trypanocidal activity, cures (3.3 mg/kg, subcutaneous): 5/5
Trypanocidal activity, cures (13 mg/kg, subcutaneous): 5/5

C[n+]1c(-c2ccc(C=CC=NNC3=NCCCN3)cc2)cn2ccccc21 [BL07824]
Trypanocidal activity, cures (3.3 mg/kg, subcutaneous): 5/5
Trypanocidal activity, cures (6.6 mg/kg, subcutaneous): 5/5
Trypanocidal activity, cures (13 mg/kg, subcutaneous): 5/5

C[n+]1c(-c2ccc(C=NNC(=N)N)cc2)cn2cc(Cl)ccc21 [BK13069]
Trypanocidal activity, cures (6.65 mg/kg, subcutaneous): 5/5

C[n+]1c(-c2ccc(C=CC=NNC(=N)N)cc2)cn2ccccc21 [BL07815]
Trypanocidal activity, cures (1.6 mg/kg, subcutaneous): 0/10
Trypanocidal activity, cures (3.3 mg/kg, subcutaneous): 5/5
Trypanocidal activity, cures (6.6 mg/kg, subcutaneous): 5/5
Trypanocidal activity, cures (13 mg/kg, subcutaneous): 10/10
Trypanocidal activity, cures (26 mg/kg, subcutaneous): 15/15
Trypanocidal activity, cures (53 mg/kg, subcutaneous): 5/5
Trypanocidal activity, cures (106 mg/kg, subcutaneous): 10/10

C[n+]1c(-c2ccc(C(N)=NO)cc2)cn2cc(Cl)ccc21 [BK46193]
Increase in survival (106 mg/kg, subcutaneous): 5.2 days
Trypanocidal activity, cures (106 mg/kg, subcutaneous): 1/5
Increase in survival (212 mg/kg, subcutaneous): 2.9 days
Trypanocidal activity, cures (212 mg/kg, subcutaneous): 4/5

C[n+]1c(COc2ccc(C=NNC(=N)NO)cc2)cn2ccccc21 [BK75087]
Increase in survival (0.2 mg/kg, subcutaneous): 5.9 days
Trypanocidal activity, cures (0.2 mg/kg, subcutaneous): 2/5
Increase in survival (0.4 mg/kg, subcutaneous): 10 days
Trypanocidal activity, cures (0.4 mg/kg, subcutaneous): 3/5
Trypanocidal activity, cures (0.8 mg/kg, subcutaneous): 10/10
Trypanocidal activity, cures (6.6 mg/kg, subcutaneous): 5/5

C[n+]1c(-c2ccc(-c3n[nH]c(N)n3)cc2)cn2ccsc21 [BK42720]
Trypanocidal activity, cures (26.5 mg/kg, subcutaneous): 5/5

CN=C(N)NN=Cc1ccc(-c2cn3ccccc3[n+]2C)cc1 [BK46200]
Trypanocidal activity, cures (0.85-1.66 mg/kg, (M), subcutaneous): 5/5
Trypanocidal activity, cures (3.33-6.65 mg/kg, (F), subcutaneous): 5/5

C[n+]1c(COc2ccc(C(=N)N)cc2)cn2ccccc21 [BK65330]
Increase in survival (13.3 mg/kg, subcutaneous): 12 days
Trypanocidal activity, cures (13.3 mg/kg, subcutaneous): 3/5

C[n+]1c(-c2ccc(C(=N)N)cc2)cn2ccsc21 [BK21874]
Increase in survival (26.5 mg/kg, subcutaneous): 3.6 days
Trypanocidal activity, cures (26.5 mg/kg, subcutaneous): 1/10
Increase in survival (53 mg/kg, subcutaneous): 2.5 days
Trypanocidal activity, cures (53 mg/kg, subcutaneous): 2/5
Increase in survival (106 mg/kg, subcutaneous): 12.9 days
Trypanocidal activity, cures (106 mg/kg, subcutaneous): 9/10
Trypanocidal activity, cures (212 mg/kg, subcutaneous): 5/5

Cn1cc[n+](C)c1C=Cc1ccc(C=NNC2=NCCCN2)cc1 [BL21584]
Trypanocidal activity, cures (6.6 mg/kg, subcutaneous): 5/5
Trypanocidal activity, cures (13 mg/kg, subcutaneous): 10/10

CCN(CC)CCNC(=N)c1ccc(-c2cn3ccccc3[n+]2C)cc1 [BK23001]
Increase in survival (13.3 mg/kg, subcutaneous): 6.6 days

Cc1ccc2n(c1)cc(-c1ccc(C=NNc3nc[nH]n3)cc1)[n+]2C [BK51961]
Activity at dosage (C = Cures) (13 mg/kg): INAC
Activity at dosage (C = Cures) (26 mg/kg): INAC
Activity at dosage (C = Cures) (53 mg/kg): INAC
Activity at dosage, value in parentheses (increase in survival) (106 mg/kg): 5.5
Activity at dosage, value in parentheses (increase in survival) (212 mg/kg): 6.3
Activity at dosage, value in parentheses (increase in survival) (424 mg/kg): 6.0

C[n+]1c(-c2ccc(C(N)=NO)cc2)cn2ccsc21 [BK16499]
Increase in survival (26 mg/kg, subcutaneous): 2.7 days
Trypanocidal activity, cures (26 mg/kg, subcutaneous): 2/10
Increase in survival (53 mg/kg, subcutaneous): 4.7 days
Trypanocidal activity, cures (53 mg/kg, subcutaneous): 2/10

COC(=O)c1ccc2n(c1)cc(-c1ccc(NC(C)=O)cc1)[n+]2C [BJ90758]
Increase in survival (106 mg/kg, subcutaneous): 4.2 days
Increase in survival (424 mg/kg, subcutaneous): 4.2 days
Trypanocidal activity, cures (424 mg/kg, subcutaneous): 2/10

CN=C(N)NN=Cc1ccc(-c2c([N+](=O)[O-])n3ccccc3[n+]2C)cc1 [BK47958]
Increase in survival (1.66 mg/kg, subcutaneous): 3.0 days
Trypanocidal activity, cures (1.66 mg/kg, subcutaneous): 8/10

Cn1c(COc2ccc(C=NNC3=NCCN3)cc2)[n+](C)c2ccccc21 [BL10018]
Increase in survival (0.4 mg/kg, subcutaneous): 6.8 days
Trypanocidal activity, cures (0.4 mg/kg, subcutaneous): 3/5
Trypanocidal activity, cures (1.6 mg/kg, subcutaneous): 10/10
Trypanocidal activity, cures (6.6 mg/kg, subcutaneous): 5/5

CC(=O)Nc1ccc(-c2cn3ccccc3[n+]2C)cc1 [BJ83315]
Increase in survival (106 mg/kg, subcutaneous): 3.7 days
Increase in survival (212 mg/kg, subcutaneous): 6.4 days
Trypanocidal activity, cures (212 mg/kg, subcutaneous): 3/5
Increase in survival (424 mg/kg, subcutaneous): 2.9 days
Trypanocidal activity, cures (424 mg/kg, subcutaneous): 9/10
